Some test systems named below: DMS 273 small cell lung; HOP-18 NSCLC; XF 498 CNS.
Holding throughout (experiment): NCI-60 cell line screen, 48 h

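Tested at 5 concentrations; 48 h exposure; 96-well plates; endpoints linearly interpolated, else capped at highest concentration. GI50 = concentration required for 50% inhibition of growth. TGI: total growth inhibition.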

As for `COc1ccc(N2C(=O)C3c4[nH]c5ccccc5c4C4CCCCC4C3C2=O)cc1` (centres undefined), the values for the TGI with DMS 273 small cell lung and with HOP-18 NSCLC were 23.9 µM and 67.7 µM, respectively.
In the case of `O=S1Nc2c(Cl)cc(Cl)c(Cl)c2S1` (centres undefined), the TGI in the assay on DMS 273 small cell lung and with HOP-18 NSCLC was greater than 100 µM each time.
As to `N#CCC(=O)N1CCCCCCC1`, the TGI with DMS 273 small cell lung is greater than 100 µM.
Take `CCN(CC)CC(=N)N(CC)c1ccccc1`: the TGI in the assay on HOP-18 NSCLC and in the assay on XF 498 CNS was greater than 100 µM each time.
With `Cn1c(=O)c2/c(n(C)c1=O)=N\C=c1\c(=O)n(C)c(=O)n(C)\c1=N\C=2`, the TGI in the assay with HOP-18 NSCLC was greater than 100 µM.
Take `O=C1CSc2cc([N+](=O)[O-])ccc2N1`: the TGI with DMS 273 small cell lung, in the assay on HOP-18 NSCLC and in the assay on XF 498 CNS was greater than 100 µM throughout.
In the case of `CC1(C)N=C(c2ccccn2)C(c2ccccn2)=NC1(C)C`, the TGI in the assay on DMS 273 small cell lung and with XF 498 CNS was greater than 100 µM in each case.
On to `NC(CSSCC(N)Cc1ccccc1)Cc1ccccc1` (centres undefined), for which, in the assay with XF 498 CNS, the TGI is 57.2 µM.
For the compound `C/C=N\N1C(=O)c2ccccc2C1=O`, the TGI in the assay with DMS 273 small cell lung, in the assay with HOP-18 NSCLC and with XF 498 CNS was greater than 100 µM in each case.
On to `C=C1C(=O)OC2CC3(C)OC3CC/C(C)=C/C(OC(C)=O)C12` (centres undefined), for which the TGI worked out at 31.2 µM with DMS 273 small cell lung, 23.5 µM in the assay on HOP-18 NSCLC and 4.12 µM with XF 498 CNS.
On to `O=c1oc2ccccc2c(O)c1C(C/C(CCN1CCCC1)=N\Nc1ccccc1)c1ccccc1` (centres undefined), for which the TGI with HOP-18 NSCLC and in the assay with XF 498 CNS was greater than 100 µM throughout.
In the case of `O=C(/C=C\c1cccc2ccccc12)c1cccc2ccccc12`, in the assay with DMS 273 small cell lung, the GI50 was 4.03 µM and the TGI is 24.7 µM.
For `O=C1c2ccccc2C(=O)c2[nH]c(Cc3ccc(F)cc3)nc21`, the TGI amounted to 35.5 µM in the assay on DMS 273 small cell lung and 31.8 µM in the assay on XF 498 CNS.
In the assay on HOP-18 NSCLC, `C/C=C(/C)C(=O)O[C@H]1[C@H](O)CC(c2ccc3c(c2O)C(O)=C2C(=O)C4(OC)C(O)=C(C(N)=O)C(=O)[C@H](CC(=O)c5ccccc5O)C4CC2[C@@]3(C)OC)O[C@@H]1C` (some centres undefined) displayed a TGI of 3.07 µM.
Regarding `CN1C/C(=C\C=C\c2ccccc2)C(=O)/C(=C/C=C/c2ccccc2)C1`, the TGI with DMS 273 small cell lung and in the assay with XF 498 CNS was greater than 100 µM in each case.

Source of the values: PubChem BioAssay (NCI).
